Experimental data reported in patent US12692253B2, “Antimicrobial compounds and methods” (Curza Global, LLC, priority 2019, dated 2026).

What was measured:
E. faecalis (Ef) = test: Broth microdilution minimum inhibitory concentration (MIC), CLSI; assay type: cell-based; details: growth medium with sodium bicarbonate; for MIC: Enterococcus faecalis, read-out: Ef + bicarb MIC
Method in brief: (§1)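 Bacteria grown at 35±2 °C to 0.5 McFarland turbidity were added at 5×10^4 CFU/well to triplicate two-fold compound series (8 dilutions). Media were cation-adjusted Mueller-Hinton broth alone or with sodium bicarbonate (6.25 or 25 mM final) or heat-inactivated human serum (0–50%), per modified CLSI method.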

A. baumannn (Ab) = test: as above; assay type: cell-based; details: A. baumannn, growth medium with sodium bicarbonate; for MIC: read-out: Ab + bicarb MIC
Method in brief: as §1

S. aureus (Sa) = test: as above; assay type: cell-based; details: growth medium with sodium bicarbonate; for MIC: Staphylococcus aureus, read-out: Sa + bicarb MIC
Method in brief: as §1

P. aeruginosa (Pa) = test: as above; assay type: cell-based; details: growth medium with sodium bicarbonate; for MIC: Pseudomonas aeruginosa, read-out: Pa MIC + bicarb
Method in brief: as §1

E. coli (Ec) = test: as above; assay type: cell-based; details: growth medium with sodium bicarbonate; for MIC: Escherichia coli, read-out: E. coli + bicarb MIC
Method in brief: as §1

[1] = tested on: E. coli S30 extract (bacterial protein synthesis); test: E. coli S30 extract coupled transcription-translation luciferase assay (inhibition of bacterial protein synthesis); assay type: biochemical; details: % inhibition @ 1 μM, read-out: S30 IC50 (μM/% inhib.)
Method in brief: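 Luciferase luminescence quantified inhibition of protein synthesis relative to water controls, with no-DNA reactions giving background. Compounds in 2-fold serial dilution (8 levels) were incubated 1 hour at 37 °C with E. coli S30 extract, amino acids and pBESTluc plasmid, then chilled to stop.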

[2] = target: Rabbit Reticulocyte Lysate (eukaryotic protein synthesis); test: Rabbit reticulocyte lysate luciferase assay (inhibition of eukaryotic protein synthesis); assay type: biochemical; details: % inhibition @ 1 μM, read-out: Rabbit reticulocyte IC50 (μM/% inhib.)
Method in brief: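 Percent inhibition calculated against water-only controls from luminescence; background set by lysate lacking RNA. Compounds, 8-point 2-fold titration, incubated 90 minutes at 30° C with nuclease-treated rabbit reticulocyte lysate programmed with luciferase control RNA plus complete amino acids.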

| SMILES | MIC (E. faecalis (Ef)) [µg/mL] | MIC (A. baumannn (Ab)) [µg/mL] | MIC (S. aureus (Sa)) [µg/mL] | MIC (P. aeruginosa (Pa)) [µg/mL] | MIC (E. coli (Ec)) [µg/mL] | IC50 [1] [µM] | IC50 [2] [µM] | Ef + bicarb MIC (E. faecalis (Ef)) | Ab + bicarb MIC (A. baumannn (Ab)) | Sa + bicarb MIC (S. aureus (Sa)) | Pa MIC + bicarb (P. aeruginosa (Pa)) | E. coli + bicarb MIC (E. coli (Ec)) |
| --- | --- | --- | --- | --- | --- | --- | --- | --- | --- | --- | --- | --- |
| CC(Cc1ccc(-n2ccc(NC(=O)N3CCN(C(=O)[C@H](C)N)CC3)nc2=O)cc1)N1C[C@@H]2[C@@H](CN)[C@@H]2C1 (some centres unmarked) [Compound 222] | 8 to 32 | > 32 | < 8 | > 32 | < 8 | 0.5 to 1 | ≥ 1 |  |  |  |  |  |
| CC(C)[C@H](N)C(=O)N1CCN(C(=O)Nc2ccn(-c3ccc(CC(C)N4C[C@@H]5[C@@H](CN)[C@@H]5C4)cc3)c(=O)n2)CC1 (some centres unmarked) [Compound 223] | < 8 | > 32 | < 8 | > 32 | < 8 | < 0.5 | ≥ 1 |  |  |  |  |  |
| CCC(N)(CC)C(=O)N1CCN(C(=O)Nc2ccn(-c3ccc(CN4C[C@@H]5[C@@H](N)[C@@H]5C4)cc3)c(=O)n2)CC1 [Compound 224] | < 8 | > 32 | < 8 | > 32 | < 8 | < 0.5 | ≥ 1 |  |  |  |  |  |
| CC(Cc1ccc(-n2ccc(NC(=O)N3CCN(C(=O)C(C)(C)N)CC3)nc2=O)cc1)N1CCC2(CC(N)C2)C1 (centres unmarked) [Compound 225] |  | > 32 | < 8 | > 32 | < 8 | 0.5 to 1 | ≥ 1 | +++ (An MIC value (μg/mL) that is less than 8 μg/mL) |  |  |  |  |
| CC(Cc1ccc(-n2ccc(NC(=O)N3CCN(C(=O)C4(N)CC4)CC3)nc2=O)cc1)N1C[C@@H]2[C@@H](CN)[C@@H]2C1 (some centres unmarked) [Compound 226] | > 32 | > 32 | > 32 | > 32 | > 32 | ≥ 1 | ≥ 1 |  |  |  |  |  |
| CC(Cc1ccc(-n2ccc(NC(=O)N3CCN(C(=O)CN)CC3)nc2=O)cc1)N1C[C@@H]2[C@@H](CN)[C@@H]2C1 (some centres unmarked) [Compound 227] | < 8 | > 32 | < 8 | > 32 | < 8 | 0.5 to 1 | ≥ 1 |  |  |  |  |  |
| CC(Cc1ccc(-n2ccc(NC(=O)N3CCN(C(=O)[C@@H]4CCCN4)CC3)nc2=O)cc1)N1C[C@@H]2[C@@H](CN)[C@@H]2C1 (some centres unmarked) [Compound 228] | 8 to 32 | > 32 | < 8 | > 32 | < 8 | ≥ 1 | ≥ 1 |  |  |  |  |  |
| CC(Cc1ccc(-n2ccc(NC(=O)N3CCN(C(=O)C4(N)CCC4)CC3)nc2=O)cc1)N1C[C@@H]2[C@@H](CN)[C@@H]2C1 (some centres unmarked) [Compound 229] | > 32 | > 32 | > 32 | > 32 | 8 to 32 | ≥ 1 | ≥ 1 |  |  |  |  |  |
| CC(C)[C@@H](N)C(=O)N1CCN(C(=O)Nc2ccn(-c3ccc(CC(C)N4C[C@@H]5[C@@H](CN)[C@@H]5C4)cc3)c(=O)n2)CC1 (some centres unmarked) [Compound 230] | > 32 | > 32 | 8 to 32 | > 32 | < 8 | ≥ 1 | ≥ 1 |  |  |  |  |  |
| CC(Cc1ccc(-n2ccc(NC(=O)N3CCN(C(=O)C[C@H](C)N)CC3)nc2=O)cc1)N1C[C@@H]2[C@@H](CN)[C@@H]2C1 (some centres unmarked) [Compound 231] | > 32 | > 32 | < 8 | > 32 | < 8 | ≥ 1 | ≥ 1 |  |  |  |  |  |
| CC(Cc1ccc(-n2ccc(NC(=O)N3CCN(C(=O)[C@H]4C[C@@H](N)C4)CC3)nc2=O)cc1)N1C[C@@H]2[C@@H](CN)[C@@H]2C1 (some centres unmarked) [Compound 232] | > 32 | > 32 | < 8 | > 32 | < 8 | ≥ 1 | ≥ 1 |  |  |  |  |  |
| CC(Cc1ccc(-n2ccc(NC(=O)N3CCN(C(=O)C(C)(C)CN)CC3)nc2=O)cc1)N1C[C@@H]2[C@@H](CN)[C@@H]2C1 (some centres unmarked) [Compound 233] | 8 to 32 | > 32 | < 8 | > 32 | < 8 | ≥ 1 | ≥ 1 |  |  |  |  |  |
| CC(Cc1ccc(-n2ccc(NC(=O)N3CCN(C(=O)[C@H]4C[C@H](N)C4)CC3)nc2=O)cc1)N1C[C@@H]2[C@@H](CN)[C@@H]2C1 (some centres unmarked) [Compound 234] | > 32 | > 32 | < 8 | > 32 | < 8 | ≥ 1 | ≥ 1 |  |  |  |  |  |
| CC(C)[C@@H](N)CC(=O)N1CCN(C(=O)Nc2ccn(-c3ccc(CC(C)N4C[C@@H]5[C@@H](CN)[C@@H]5C4)cc3)c(=O)n2)CC1 (some centres unmarked) [Compound 235] | > 32 | > 32 | < 8 | > 32 | < 8 | ≥ 1 | ≥ 1 |  |  |  |  |  |
| CNCC(=O)N1CCN(C(=O)Nc2ccn(-c3ccc(CC(C)N4C[C@@H]5[C@@H](CN)[C@@H]5C4)cc3)c(=O)n2)CC1 (some centres unmarked) [Compound 236] | > 32 | > 32 | 8 to 32 | > 32 | < 8 | ≥ 1 | ≥ 1 |  |  |  |  |  |
| CC(Cc1ccc(-n2ccc(NC(=O)N3CCN(C(=O)C(C)(C)N)CC3)nc2=O)cc1)N1CCC2(CC1)CC2CN (centres unmarked) [Compound 237] | > 32 | > 32 | > 32 | > 32 | < 8 | ≥ 1 | ≥ 1 |  |  |  |  |  |
| CC(Cc1ccc(-n2ccc(NC(=O)N3CCN(C(=O)C(C)(C)N)CC3)nc2=O)cc1)N1CCC2(CC(N)C2)C1 (centres unmarked) [Compound 238] |  |  |  |  |  | 0.5 to 1 | ≥ 1 | + (An MIC (μg/mL) value that is 32 μg/mL or greater) | + (An MIC (μg/mL) value that is 32 μg/mL or greater) | ++ (An MIC value (μg/mL) that is 8 μg/mL or greater and less than 32 μg/mL) | + (An MIC (μg/mL) value that is 32 μg/mL or greater) | +++ (An MIC value (μg/mL) that is less than 8 μg/mL) |
| CC(Cc1ccc(-n2ccc(NC(=O)N3CCN(C(=O)C(N)CCCN)CC3)nc2=O)cc1)N1C[C@@H]2[C@@H](CN)[C@@H]2C1 (some centres unmarked) [Compound 239] | > 32 | > 32 | 8 to 32 | > 32 | < 8 | < 0.5 | ≥ 1 |  |  |  |  |  |
| CC(Cc1ccc(-n2ccc(NC(=O)N3CCN(C(=O)[C@@H](N)CCCCN)CC3)nc2=O)cc1)N1C[C@@H]2[C@@H](CN)[C@@H]2C1 (some centres unmarked) [Compound 240] | > 32 | > 32 | 8 to 32 | > 32 | < 8 | < 0.5 | ≥ 1 |  |  |  |  |  |
| CC(Cc1ccc(-n2ccc(NC(=O)N3CCN(C(=O)C(C)(C)NCS(=O)(=O)O)CC3)nc2=O)cc1)N1C[C@@H]2[C@@H](CNCS(=O)(=O)O)[C@@H]2C1 (some centres unmarked) [Compound 241] | 8 to 32 | > 32 | < 8 | > 32 | < 8 | < 0.5 | ≥ 1 |  |  |  |  |  |
